Results on one substance are retold here after US7238527B2, “Methods and compositions for rapid in vitro propagation of Swertia chirata” (priority 2001, dated 2007).

This assay relates to Swertia chirata shoots. Nature of the assay: Rooting of excised four-week shoots on modified MS with auxins (Example 3). As to conditions: for Rooting %: agar 0.8%. The class given is cell-based. The procedure:
The effect of various auxins on rooting percent and duration may be studied using four-week shoots obtained in the preceding section.
The excised shoot may be transferred to modified MS basal culture medium with varied concentrations of several auxins selected from a group comprising IAA, IBA, and NAA as shown in Table 3.
In this experiment there are 3 treatments of auxin IAA, IBA and NAA using various levels (1–5 mg/L) supplemented to modified MS media, Supporting system Agar (0.8%).
Four weeks long shoot achieved in experiment 2 were excised and transferred to above referred medium

indole butyric acid [IBA]: under “1.0 to 5.0 mg/L auxin in modified MS basal culture medium”, the Time to rooting result is given as “about 8 weeks”. Further, the “Rooting (wks)” value is, setting by setting: (auxin 1 mg/L in modified MS) 8 wks; (auxin 2 mg/L in modified MS) 8 wks; (auxin 5 mg/L in modified MS) 8 wks. The Rooting % is on record as 60% (auxin 1 mg/L in modified MS), 62% (auxin 2 mg/L in modified MS) and 60% (auxin 5 mg/L in modified MS). Moreover, the Root morphology result (in words) is “white colored, thick, and short”.
